Results on 1 molecule are retold here after US8519061B2, “Controlled release remediation system and composition” (North Carolina A&T State University, priority 2008, dated 2013).

The test concerns E. coli. Nature of the test: E. coli colony counts, Membrane Filter Count Method, Country Park Lake water. The format is cell-based, Escherichia coli. The protocol:
These pellets were used to evaluate the removal of Escherichia coli (commonly E. coli) from publicly accessible water. […] Recreational use of the publicly accessible water in this area is restricted due to high E. coli concentrations that can lead to illness.
Water samples including control water samples and publicly accessible water samples (from Country Park Lake) at concentrations of 1 ml, 0.1 ml, 0.01 ml, and 0.001 ml were prepared for evaluation.
The water samples were filtered through 5 μm filters and bacteria was cultured in petri dishes with m-Endo broth (e.g., commercially available form BD Diagnostic Systems Sparks, Md.) for 24-hours at 35° C. If E. coli was present in the filtered water sample, metallic purple/red E. coli colonies would grow on the filter in the petri dish. For this analysis, the larger the water sample filtered, the higher the concentration of E. coli which would grow within the 24-hour window. To analyze the amount of E. coli on the filter, the goal was to determine the appropriate water dilution amount to obtain filters where the number of colonies could be counted. If the filter was covered with E. coli, the petri dish was classified as “To numerous to count”. When an acceptable number of countable colonies was obtained, the number of colonies/100 ml was calculated for the water sample.

Each structure is given as a SMILES string.

As for `O=S(=O)([O-])OO.[K+]` [Oxone ® compound, potassium hydrogen peroxymonosulfate sulfate (5:3:2:2)], the “E. coli Colony Counts, 0.1 ml dilution plates” value is given as “No colonies”; the “E. coli Colony Counts, 1 ml dilution plates” value is listed as “No colonies”; the “E. coli Colony Counts, Average 24 hours # colonies/100 ml” value is “No colonies”; the “Removal of E. coli from treated water” value is “complete removal”.
